According to article PMC3562592 (Journal of the American Chemical Society, 2012):

Target: T1, FAAH (Rattus norvegicus, UniProt P97612)
T1 sequence (P97612 1-579): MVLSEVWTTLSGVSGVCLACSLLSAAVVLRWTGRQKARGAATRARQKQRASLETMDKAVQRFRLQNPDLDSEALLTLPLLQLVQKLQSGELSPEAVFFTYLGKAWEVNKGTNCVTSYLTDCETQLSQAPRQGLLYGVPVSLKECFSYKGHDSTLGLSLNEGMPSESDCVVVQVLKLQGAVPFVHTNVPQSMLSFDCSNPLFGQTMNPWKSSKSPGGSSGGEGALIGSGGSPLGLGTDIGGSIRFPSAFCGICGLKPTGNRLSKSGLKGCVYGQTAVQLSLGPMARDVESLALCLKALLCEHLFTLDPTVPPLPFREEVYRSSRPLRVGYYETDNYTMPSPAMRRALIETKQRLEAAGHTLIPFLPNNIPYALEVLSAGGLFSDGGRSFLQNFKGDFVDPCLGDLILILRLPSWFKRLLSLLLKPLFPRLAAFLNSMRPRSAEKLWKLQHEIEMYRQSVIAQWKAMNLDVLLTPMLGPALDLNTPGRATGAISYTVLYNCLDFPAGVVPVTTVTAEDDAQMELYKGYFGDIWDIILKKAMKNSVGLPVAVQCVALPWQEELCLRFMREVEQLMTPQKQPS
Test: WaterLOGSY NMR binding to FAAH

binding to FAAH (WaterLOGSY signals) (enzyme pre-incubated with URB597): did not alter such binding | binding to FAAH (WaterLOGSY signals) (without URB597): able to bind FAAH
Compound: CC(C(=O)O)c1ccc2c(c1)[nH]c1ccc(Cl)cc12 (racemic) [carprofen, (RS)-2-(6-chloro-9H-carbazol-2-yl)propanoic acid]
